{
  "source": "paper PMC4302236",
  "about": "“Functional profile of a novel modulator of serotonin, dopamine, and glutamate neurotransmission” (Psychopharmacology, 2014)",
  "key": {"5-HT2B receptors": {"biological_target": "5-HT2B receptors (Homo sapiens, UniProt P41595)", "sequence (P41595 whole entry)": "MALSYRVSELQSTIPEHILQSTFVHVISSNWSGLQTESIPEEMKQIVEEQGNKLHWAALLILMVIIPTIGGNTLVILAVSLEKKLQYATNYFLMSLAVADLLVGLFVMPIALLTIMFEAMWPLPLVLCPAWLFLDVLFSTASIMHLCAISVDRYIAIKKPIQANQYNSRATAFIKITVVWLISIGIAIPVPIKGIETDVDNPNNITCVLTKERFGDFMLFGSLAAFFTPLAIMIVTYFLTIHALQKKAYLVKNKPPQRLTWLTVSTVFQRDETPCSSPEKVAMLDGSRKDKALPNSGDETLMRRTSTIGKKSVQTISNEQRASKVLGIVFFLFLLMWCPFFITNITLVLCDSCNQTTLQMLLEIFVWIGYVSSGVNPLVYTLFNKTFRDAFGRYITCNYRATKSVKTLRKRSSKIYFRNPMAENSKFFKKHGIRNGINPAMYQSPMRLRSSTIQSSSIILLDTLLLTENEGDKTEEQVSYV", "assay": "Binding to 5-HT2B receptors"}, "[1]": {"test_system": "D-AMPH-induced hyperactivity", "assay": "Inhibition of D-amphetamine-induced hyperactivity", "assay_type": "in vivo", "settings": "rats, p.o.; D-AMPH 1 mg/kg i.p.; distance traveled over 2 h", "description": "Male Sprague–Dawley rats (200–250 g, N=4/treatment group) were habituated to Lucite locomotor activity chambers comprising an AccuScan activity monitoring system (AccuScan Instruments, Inc., Columbus, OH) were maintained in a quiet observation room kept under low light conditions. […] The rats were briefly removed from the activity chambers 60 min later to receive an injection of D-amphetamine hydrochloride (D-AMPH; 1 mg/kg in 1 ml/kg, i.p.). The animals were returned to the activity chambers, and locomotor activity was then recorded for 2 h using system software. Activity was quantitated as distance traveled (cm) over 2 h for each group. Inhibitory activity was calculated as the percent of total activity observed at each dose level of each drug versus animals receiving D-AMPH alone. An ID50 for inhibition of D-AMPH-induced hyperactivity was calculated for each compound."}, "5-HT2C receptor": {"biological_target": "T1, 5-HT2C receptor (Sus scrofa, UniProt K7GSR7)", "T1 construct": "tissue NovaScreen/Caliper/Perkin-Elmer; host or cells: pig choroid plexus", "T1 sequence (K7GSR7 1-457)": "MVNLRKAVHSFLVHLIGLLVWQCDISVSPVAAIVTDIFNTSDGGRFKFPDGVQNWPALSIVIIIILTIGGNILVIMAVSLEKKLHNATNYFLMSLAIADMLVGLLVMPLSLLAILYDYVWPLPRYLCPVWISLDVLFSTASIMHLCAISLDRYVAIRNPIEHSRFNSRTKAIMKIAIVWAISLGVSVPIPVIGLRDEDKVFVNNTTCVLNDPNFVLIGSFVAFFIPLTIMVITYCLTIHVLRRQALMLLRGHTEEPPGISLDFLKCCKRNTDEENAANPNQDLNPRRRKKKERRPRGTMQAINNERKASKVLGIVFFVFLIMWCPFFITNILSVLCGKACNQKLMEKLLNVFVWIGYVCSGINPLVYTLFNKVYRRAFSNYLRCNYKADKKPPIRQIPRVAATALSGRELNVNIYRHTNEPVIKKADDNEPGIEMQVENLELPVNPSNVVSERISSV", "assay": "5-HT2C receptor binding in pig choroid plexus (3H-methylsergide)", "description": "Binding activity at a variety of receptor targets, including recombinant human serotonin receptors and rat dopamine D2 and human recombinant dopamine D4 receptors, was measured in vitro using standard radioligand displacement methods (NovaScreen/Caliper/Perkin-Elmer, Hanover, MD), to determine affinity. […] D2 receptor binding was measured at rat recombinant receptors expressed in Chinese hamster ovary (CHO) cells and using ^3H-methylspiperone as a radioligand and in rat striatum using ^3H-sulpiride as a radioligand. […] D4 receptor binding was measured at human recombinant receptor s expressed in CHO cells and using ^3 H-methylspiperone as a radioligand. D1 receptor binding at human recombinant receptor was measured in CHO cells using ^3H-SCH23390 as a radioligand. 5-HT2C receptor binding was measured in pig choroid plexus using ^3 H-methylsergide as a radioligand. Binding to alpha adrenergic receptors in the rat frontal cortex (alpha1A) or rat liver (alpha1B) was measured using ^3H-prazosin as a radioligand. Histamine H1 receptor binding was measured in bovine cere- bellum using ^3H-pyrilamine as a radioligand. […] The affinity constant (Ki) for each receptor subtype or inhibitory concentration 50 (IC50) for inhibition in functional assays was calculated."}, "[2]": {"biological_target": "T2, human recombinant D2-short receptor (Homo sapiens, UniProt P14416)", "T2 construct": "expressed in transfected cells; host or cells: CHO", "T2 sequence (P14416 1-414 isoform P14416-2)": "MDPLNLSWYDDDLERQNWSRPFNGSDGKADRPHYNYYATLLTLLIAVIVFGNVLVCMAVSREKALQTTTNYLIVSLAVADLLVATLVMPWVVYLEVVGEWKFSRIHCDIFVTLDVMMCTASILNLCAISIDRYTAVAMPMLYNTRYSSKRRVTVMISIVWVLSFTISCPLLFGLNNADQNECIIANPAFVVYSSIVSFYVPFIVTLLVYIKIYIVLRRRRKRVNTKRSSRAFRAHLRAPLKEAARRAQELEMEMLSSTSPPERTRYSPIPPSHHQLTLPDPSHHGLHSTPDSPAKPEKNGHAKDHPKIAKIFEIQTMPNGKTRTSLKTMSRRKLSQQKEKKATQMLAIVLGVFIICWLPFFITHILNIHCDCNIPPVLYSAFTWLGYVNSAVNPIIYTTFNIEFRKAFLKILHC", "assay": "Blockade of dopamine-induced inhibition of forskolin-stimulated cAMP accumulation in CHO cells", "assay_type": "cell-based", "settings": "forskolin 10 μM, read-out: IC50, blocking dopamine inhibition of forskolin-stimulated cAMP accumulation"}, "social defeat model": {"test_system": "social defeat model", "assay": "Social interaction behavior after repeated social defeat", "assay_type": "in vivo", "settings": "mice, 1 mg/kg i.p. once daily 28 days after 10 days defeat; 150 s test", "description": "Mice were tested for social isolation behavior after repeated exposure (for 10 days) to an aggressive resident mouse in the social defeat paradigm as described by [Berton et al. (2006)]. […] On the day after the last drug or vehicle treatment, the mice were placed in an open field in the presence of a resident mouse (within a smaller cage) and the animal’s behavior recorded by videotape for 150 s. Videotracking software (Noldus, Netherlands) was used to calculate the total time each mouse spent in specified open-field quadrants, defined schematically in Fig. 8. The total time (s) spent by mice representing each drug treatment group in the interaction zone (Fig. 8) in proximity to the resident mouse or, in the corner zones, at a distance from the resident mouse (Fig. 8) was expressed as a mean (±SEM)."}, "[3]": {"test_system": "GluN2B phosphorylated at tyrosine (Y) 1472", "assay": "GluN2B Y1472 phosphorylation state in nucleus accumbens", "assay_type": "in vivo", "settings": "mice, 3 mg/kg p.o., 120 min after dosing", "description": "Brains were rapidly removed from the skull. […] Brain tissue was prepared for SDS-PAGE as described above, and protein homogenates (15 μg) were separated on 3-7 % gradient gels, and proteins transferred to nitrocellulose membranes. Portions of each membrane were immunoblotted for GluN2B phosphorylated at […] (rabbit polyclonal) and total GluN2B (mouse monoclonal) (Thermo Fisher Scientific, Rockford, IL)."}, "[4]": {"test_system": "striatal dopamine metabolism", "assay": "Striatal dopamine metabolism (HPLC-EC of DA, DOPAC, HVA)", "assay_type": "in vivo, mice", "settings": "for DOPAC/DA, chronic (21 day) dosing, mean / HVA/DA, chronic (21 day) dosing, mean: striatum 2 h after last dose; for DOPAC/DA, acute (2 h) dosing, mean / HVA/DA, acute (2 h) dosing, mean: striatum 2 h after dose", "description": "Measurements of tissue dopamine levels were performed at CDC-NIOSH. […] Striatum was rapidly dissected from each mouse brain, weighed, and placed into Eppendorf tubes that were frozen in liquid nitrogen and stored at -80 °C. […] Tissues were homogenized in 100 μl of ice-cold 0.2 M perchloric acid containing 1 μM dihydroxybenzylamine (DHBA) as an internal standard and centrifuged at 10,000×g for 10 min at 4 °C. The supernatant was filtered through a 0.2 μm nitrocellulose membrane, and an aliquot (10 μl) was injected from a temperature-controlled (4 °C) automatic sample injector (Waters 717plus Autosampler) connected to a Waters 515 HPLC pump. Catecholamines were separated on a C18 reverse-phase column ([…]; Waters […] 25 cm×4.6 mm; 5 μm), electrochemically detected (Waters 464 Pulsed Electrochemical Detector; range 10 nA, potential +0.7 V), and analyzed using Millennium software. […] A flow rate of 1 ml/min was used. […] The recovery of each analyte was adjusted with respect to the internal standard and quantified from a standard curve. The levels of dopamine and its metabolites, DOPAC and HVA, were calculated from the AUC values for each (based on microgram per gram (μg/g) tissue wet weight) and expressed as a percent of the saline control."}, "[5]": {"test_system": "panel of 66 receptors, ion channels, and enzymes", "assay": "NovaScreen broad selectivity panel at 100 nM, whole panel", "assay_type": "binding"}, "[6]": {"settings": "1 mg/kg p.o. once daily 21 days"}, "[7]": {"settings": "3 mg/kg p.o. once daily 21 days"}, "[8]": {"settings": "10 mg/kg p.o. once daily 21 days"}},
  "note": "“And” between values parts separate entries of the source, which are not always exact repeats. Equal entries are not always repeated.",
  "data": [
    {"compound": "CN1CCN2c3c(cccc31)[C@@H]1CN(CCCC(=O)c3ccc(F)cc3)CC[C@@H]12", "note": "[ITI-007, 1-(4-fluoro-phenyl)-4-((6bR,10aS)-3-methyl-2,3,6b,9,10,10a-hexahydro-1H,7H-pyrido[3′,4′:4,5]pyrrolo[1,2,3-de]quinoxalin-8-yl)-butan-1-one]", "values": [
      {"measurement": "Binding to 5-HT2B receptors", "setting": "5-HT2B receptors", "result": "did not significantly bind"},
      {"measurement": "ID50, inhibition of D-AMPH-induced hyperactivity", "setting": "[1]", "result": "0.95 mg/kg and ~ 1.0 mg/kg"},
      {"measurement": "Binding to 5-HT2C receptors", "setting": "5-HT2C receptor", "result": "did not significantly bind"},
      {"measurement": "Ki", "setting": "5-HT2C receptor; radioligand displacement, unit inferred", "result": 173, "unit": "nM"},
      {"measurement": "IC50", "setting": "[2]", "result": 338, "unit": "nM"},
      {"measurement": "Time spent in interaction zone (social behavior) after chronic social defeat", "setting": "social defeat model", "result": "no such reduction in social behavior"},
      {"measurement": "GluN2B phosphorylation at Y1472 in nucleus accumbens", "setting": "[3]", "result": "180±20 % of control"},
      {"measurement": "DOPAC/DA, chronic (21 day) dosing, mean", "setting": "[4]; [6]", "result": 4.69},
      {"measurement": "HVA/DA, chronic (21 day) dosing, mean", "setting": "[4]; [6]", "result": 9.44},
      {"measurement": "DOPAC/DA, acute (2 h) dosing, mean", "setting": "[4]; 1 mg/kg p.o. once", "result": 4.98},
      {"measurement": "HVA/DA, acute (2 h) dosing, mean", "setting": "[4]; 1 mg/kg p.o. once", "result": 8.06},
      {"measurement": "DOPAC/DA, chronic (21 day) dosing, mean", "setting": "[4]; [7]", "result": 4.54},
      {"measurement": "HVA/DA, chronic (21 day) dosing, mean", "setting": "[4]; [7]", "result": 7.99},
      {"measurement": "DOPAC/DA, acute (2 h) dosing, mean", "setting": "[4]; 3 mg/kg p.o. once", "result": 4.57},
      {"measurement": "HVA/DA, acute (2 h) dosing, mean", "setting": "[4]; 3 mg/kg p.o. once", "result": 7.47},
      {"measurement": "DOPAC/DA, chronic (21 day) dosing, mean", "setting": "[4]; [8]", "result": 5.80},
      {"measurement": "HVA/DA, chronic (21 day) dosing, mean", "setting": "[4]; [8]", "result": 10.47},
      {"measurement": "DOPAC/DA, acute (2 h) dosing, mean", "setting": "[4]; 10 mg/kg p.o. once", "result": 6.02},
      {"measurement": "HVA/DA, acute (2 h) dosing, mean", "setting": "[4]; 10 mg/kg p.o. once", "result": 8.40},
      {"measurement": "Binding to the other targets of the panel", "setting": "[5]; 100 nM, custom panel of 66 receptors, ion channels, and enzymes", "result": "did not bind significantly"},
      {"measurement": "Ki", "setting": "[5]; read-out: projected Ki values (>50 % binding inhibition), single concentration 100 nM, at the 5-HT2A, D1, D2, D4, alpha1A and alpha1B receptors, and at SERT", "result": "≤ 100", "unit": "nM"}
    ]}
  ]
}
